Patent US20240108662A1, “ENGINEERED CELLS FUNCTIONALIZED WITH IMMUNE CHECKPOINT MOLECULES AND USES THEREOF” (The University of North Carolina at Chapel Hill, priority 2020, published 2024)

Columns and labels:
Type in all cases: cell-based, mouse
[1] = test system: MOLs; test: MTS viability assay, MOLs
Description: (§1) In vitro toxicity of Ac4ManNAz and LEF, and viabilities of functionalized MSCs and MOLs: In vitro toxicities of Ac4ManNAz and LEF against MSCs and MOLs, and the viabilities of functionalized MSCs and MOLs were quantified by MTS assay. Briefly, treated/functionalized cells were cultured in complete media for 4 days. The phenol-red media was replaced by phenol red-free DMEM (supplemented with 10% FBS) before quantifying the viabilities via MTS assay according to the manufacturer's protocol. The MSCs were seeded at a density of 2×10^4 cells per well and the MOLs were seeded at a density of 1×10^4 cells per well in a 96-well plate.

[2] = test system: MSCs; test: MTS viability assay, MSCs
Description: as §1

[3] = test system: 2D2 cells (MOG-specific CD4+ T cells); test: PD-1 and CTLA-4 expressions of myelin-specific 2D2 cells after co-culture (FACS); conditions: E:T 10:1, 48 h
Description: Myelin-specific CD4 T cell in vitro activation: Mouse IFN-γ and mouse IL-17A secreted from the activated myelin-specific 2D2 cells were quantified by ELISA assays as previously reported^56. […] The cell culture media (contain mainly the 2D2 cells) were preserved. 2D2 cells were collected from the cultured media via centrifugation at 1,000 g for 10 min. The moue IFN-γ and mouse IL-17A concentrations in the supernatants were quantified via mouse IFN-γ ELISA kit (ab100689; Abcam, Cambridge, MA) and mouse IL-17A ELISA kit (ab199081; Abcam, Cambridge, MA), according to manufacturer's instructions. […] MIH4, catalog number: 53-9969-42, Invitrogen), PE-labeled anti-mouse CTLA-4 antibody (clone: […] Stained cells were fixed with 4% paraformaldehyde (4% PFA; Sigma) and kept in dark at 4° C. before further FACS study.

**Q.** How did the “in vitro toxicity against MOLs” value [1] turn out when `Cc1oncc1C(=O)Nc1ccc(C(F)(F)F)cc1` [small-molecule LEF, Leflunomide] was run?
**A.** insignificant toxicity

**Q.** What about the “in vitro toxicity against MSCs” value [2] of the same compound?
**A.** moderate in vitro toxicity

**Q.** What about the “upregulation of PD-1 and CTLA-4 in co-cultured 2D2 cells” value [3] of the same compound?
**A.** increased the expression of CTLA-4 in the co-cultured 2D2 cells
